Source: the supplement of paper PMC10307832

Assays:
Assay in all cases: relative viability (nuclei count vs DMSO), 5 days (fraction); higher = more cells survive
CX-5461 + AZD7762 = compound: Cc1cnc(CNC(=O)c2c(=O)c3ccc(N4CCCN(C)CC4)nc3n3c2sc2ccccc23)cn1 [CX-5461] + NC(=O)Nc1cc(-c2cccc(F)c2)sc1C(=O)N[C@H]1CCCNC1 [AZD7762] (partner 0.2 µM)
Outline: (§1)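 After 5 days of treatment, lung cancer cells in 1536-well plates were fixed and stained in a single step (final 0.05% Triton X-100, 1% formaldehyde, 1 ug/ml Hoechst) and their nuclei counted on 4× images. Treatment had been applied by pin tool the day after seeding as one drug alone or as a fixed anchor-drug dose with five library-drug doses (not always all listed) in √10 steps. Relative viability is the nuclei count of treated wells divided by that of vehicle wells, and values are medians of duplicate plates.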

CX-5461 + Pemetrexed = compound: Cc1cnc(CNC(=O)c2c(=O)c3ccc(N4CCCN(C)CC4)nc3n3c2sc2ccccc23)cn1 [CX-5461] + Nc1nc2[nH]cc(CCc3ccc(C(=O)N[C@@H](CCC(=O)O)C(=O)O)cc3)c2c(=O)[nH]1 [Pemetrexed] (partner 0.2 µM)
Outline: as §1

CX-5461 + Tozasertib = compound: Cc1cnc(CNC(=O)c2c(=O)c3ccc(N4CCCN(C)CC4)nc3n3c2sc2ccccc23)cn1 [CX-5461] + Cc1cc(Nc2cc(N3CCN(C)CC3)nc(Sc3ccc(NC(=O)C4CC4)cc3)n2)n[nH]1 [Tozasertib] (partner 0.1 µM)
Outline: as §1

IMD-0354 + Phenformin = compound: O=C(Nc1cc(C(F)(F)F)cc(C(F)(F)F)c1)c1cc(Cl)ccc1O [IMD-0354] + N=C(N)NC(=N)NCCc1ccccc1 [Phenformin] (partner 250 µM)
Outline: as §1

| Cell Line | relative viability (CX-5461 + AZD7762; first compound 0.01 µM) | relative viability (CX-5461 + AZD7762; first compound 0.03162 µM) | relative viability (CX-5461 + AZD7762; first compound 0.1 µM) | relative viability (CX-5461 + AZD7762; first compound 0.3162 µM) | relative viability (CX-5461 + AZD7762; first compound 1 µM) | relative viability (CX-5461 + Pemetrexed; first compound 0.01 µM) | relative viability (CX-5461 + Pemetrexed; first compound 0.03162 µM) | relative viability (CX-5461 + Pemetrexed; first compound 0.1 µM) | relative viability (CX-5461 + Pemetrexed; first compound 0.3162 µM) | relative viability (CX-5461 + Pemetrexed; first compound 1 µM) | relative viability (CX-5461 + Tozasertib; first compound 0.01 µM) | relative viability (CX-5461 + Tozasertib; first compound 0.03162 µM) | relative viability (CX-5461 + Tozasertib; first compound 0.1 µM) | relative viability (CX-5461 + Tozasertib; first compound 0.3162 µM) | relative viability (CX-5461 + Tozasertib; first compound 1 µM) | relative viability (IMD-0354 + Phenformin; first compound 0.04 µM) | relative viability (IMD-0354 + Phenformin; first compound 0.1265 µM) | relative viability (IMD-0354 + Phenformin; first compound 0.4 µM) | relative viability (IMD-0354 + Phenformin; first compound 1.265 µM) | relative viability (IMD-0354 + Phenformin; first compound 4 µM) |
| --- | --- | --- | --- | --- | --- | --- | --- | --- | --- | --- | --- | --- | --- | --- | --- | --- | --- | --- | --- | --- |
| HCC-827 | 0.193 | 0.195 | 0.193 | 0.22 | 0.182 | 0.292 | 0.253 | 0.268 | 0.225 | 0.331 | 0.451 | 0.376 | 0.425 | 0.411 | 0.43 | 0.411 | 0.353 | 0.228 | 0.178 | 0.174 |
| HOP-62 | 0.643 | 0.854 | 0.424 | 0.194 | 0.356 | 0.236 | 0.384 | 0.297 | 0.28 | 0.321 | 0.315 | 0.405 | 0.372 | 0.284 | 0.344 | 0.842 | 0.482 | 0.363 | 0.12 | 0.165 |
| LC-2-ad | 0.834 | 0.919 | 0.836 | 0.848 | 0.742 | 0.238 | 0.27 | 0.244 | 0.296 | 0.279 | 0.377 | 0.446 | 0.469 | 0.411 | 0.364 | 0.612 | 0.548 | 0.232 | 0.267 | 0.17 |
| LCLC-97TM1 | 0.279 | 0.424 | 0.177 | – | 0.237 | 0.178 | 0.193 | 0.196 | 0.103 | 0.155 | 0.269 | 0.26 | 0.218 | – | 0.208 | 0.43 | 0.451 | 0.234 | 0.18 | 0.126 |
| LCLC-103H | 0.823 | 0.829 | 0.819 | 0.68 | 0.762 | 0.426 | 0.482 | 0.46 | 0.401 | 0.4 | 0.457 | 0.527 | 0.473 | 0.391 | 0.477 | 0.39 | 0.304 | 0.197 | 0.214 | 0.177 |
| LK-2 | 0.443 | 0.376 | 0.299 | – | 0.223 | 0.213 | 0.258 | 0.299 | – | 0.236 | 0.18 | 0.182 | 0.162 | – | 0.183 | 0.641 | 0.382 | 0.41 | 0.22 | 0.265 |
| NCI-H520 | – | – | – | – | – | 0.719 | 0.725 | 0.708 | 0.608 | 0.484 | 0.442 | 0.419 | 0.438 | – | 0.425 | 0.738 | 0.51 | 0.299 | 0.168 | 0.194 |
| NCI-H661 | – | – | – | – | – | 0.928 | 0.902 | 0.855 | 0.802 | 0.722 | 0.35 | 0.347 | 0.348 | 0.351 | 0.338 | 0.268 | 0.249 | 0.224 | 0.198 | 0.232 |
| NCI-H727 | 0.48 | 0.709 | 0.473 | 0.648 | 0.566 | – | – | – | – | – | 0.529 | 0.666 | 0.57 | 0.633 | 0.593 | 0.483 | 0.407 | 0.426 | 0.307 | 0.402 |
